Data taken from patent US8987267B2, “2-substituted-8-alkyl-7-OXO-7,8-dihydropyrido[2,3-D]pyrimidine-6-carbonitriles and uses thereof in treating proliferative disorders” (Temple University—of the Commonwealth System of Higher …, priority 2010, dated 2015).

How the values were obtained:
Format in all cases: biochemical
[1] = target: T1, His-tagged full length ARK5 (Homo sapiens, UniProt O60285); assay: ARK5 Kinase Assay (ARK5 Inhibition Assay); conditions: CHKtide substrate, 1 μM ATP
T1 construct: 20 ng His-tagged full length ARK5 (Invitrogen PV4127); His; purchased Invitrogen PV4127
T1 sequence (O60285 1-661): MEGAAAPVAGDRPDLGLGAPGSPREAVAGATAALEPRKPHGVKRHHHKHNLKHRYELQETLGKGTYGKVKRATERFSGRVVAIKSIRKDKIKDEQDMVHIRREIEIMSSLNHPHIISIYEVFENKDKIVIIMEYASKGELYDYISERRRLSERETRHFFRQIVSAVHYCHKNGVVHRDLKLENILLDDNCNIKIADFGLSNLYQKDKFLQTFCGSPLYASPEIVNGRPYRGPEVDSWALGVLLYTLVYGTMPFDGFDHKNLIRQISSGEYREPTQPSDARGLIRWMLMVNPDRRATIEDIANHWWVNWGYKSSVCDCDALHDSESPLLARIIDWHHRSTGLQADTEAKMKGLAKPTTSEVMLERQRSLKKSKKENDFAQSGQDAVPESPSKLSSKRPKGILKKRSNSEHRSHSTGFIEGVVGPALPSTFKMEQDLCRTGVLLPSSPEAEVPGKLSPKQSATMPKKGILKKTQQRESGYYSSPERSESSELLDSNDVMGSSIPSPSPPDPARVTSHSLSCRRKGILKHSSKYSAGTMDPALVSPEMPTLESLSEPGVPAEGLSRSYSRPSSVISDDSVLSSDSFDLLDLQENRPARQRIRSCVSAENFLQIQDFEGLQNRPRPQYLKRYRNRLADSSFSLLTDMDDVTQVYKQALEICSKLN
Method: 20 ng His-tagged full length ARK5 (Invitrogen PV4127), a protein kinase, was diluted into kinase buffer (25 mM HEPES pH 7.5, 10 mM MgCl2, 0.5 mM EGTA, 0.5 mM Na3V04, 5 mM β Glycerophosphate, 2.5 mM DTT, 0.01% Triton X-100) and incubated with the indicated concentration of a compound of Table 3 at room temperature for 30 minutes. The kinase reactions were then initiated by the addition of 1 μg (3.28 μM) CHKtide substrate peptide (Upstate 12-414), 1 μM ATP and 10 μCi γ^32 P-ATP. The reactions were incubated at 30° C. for 10 minutes.
Subsequently, the reactions were stopped by adding 3% phosphoric acid. A 10 μl aliquot was then transferred to an appropriate area of a p30 filtermat. The filtermat was allowed to dry for 20 minutes at room temperature and then washed three times with 75 mM phosphoric acid and twice with methanol. The filtermat was then dried for 20 minutes at room temperature. The filtermat was then exposed to X ray film or read in a scintillation counter. The scintillation counting values were plotted as function of log drug concentration using Prism 4 Graph pad software and IC50 values determined by plotting sigmoidal non-linear regression curves with variable slope.

c-Kit = c-Kit (Homo sapiens, UniProt P10721); assay: Kinase inhibition panel; conditions: 10 μM ATP
FGR = FGR (Homo sapiens, UniProt P09769); assay: Kinase inhibition panel; conditions: 10 μM ATP
PKCmu = PKCmu (Homo sapiens, UniProt Q15139); assay: Kinase inhibition panel; conditions: 10 μM ATP
TTK = TTK (Homo sapiens, UniProt P33981); assay: Kinase inhibition panel; conditions: 10 μM ATP
FLT4NEGFR3 = FLT4NEGFR3 (Homo sapiens, UniProt P35916); assay: Kinase inhibition panel; conditions: 10 μM ATP
ARK5 = ARK5 (Homo sapiens, UniProt O60285); assay: Kinase inhibition panel; conditions: 10 μM ATP

FLT4NEGFR3, sequence (P35916 25-1363): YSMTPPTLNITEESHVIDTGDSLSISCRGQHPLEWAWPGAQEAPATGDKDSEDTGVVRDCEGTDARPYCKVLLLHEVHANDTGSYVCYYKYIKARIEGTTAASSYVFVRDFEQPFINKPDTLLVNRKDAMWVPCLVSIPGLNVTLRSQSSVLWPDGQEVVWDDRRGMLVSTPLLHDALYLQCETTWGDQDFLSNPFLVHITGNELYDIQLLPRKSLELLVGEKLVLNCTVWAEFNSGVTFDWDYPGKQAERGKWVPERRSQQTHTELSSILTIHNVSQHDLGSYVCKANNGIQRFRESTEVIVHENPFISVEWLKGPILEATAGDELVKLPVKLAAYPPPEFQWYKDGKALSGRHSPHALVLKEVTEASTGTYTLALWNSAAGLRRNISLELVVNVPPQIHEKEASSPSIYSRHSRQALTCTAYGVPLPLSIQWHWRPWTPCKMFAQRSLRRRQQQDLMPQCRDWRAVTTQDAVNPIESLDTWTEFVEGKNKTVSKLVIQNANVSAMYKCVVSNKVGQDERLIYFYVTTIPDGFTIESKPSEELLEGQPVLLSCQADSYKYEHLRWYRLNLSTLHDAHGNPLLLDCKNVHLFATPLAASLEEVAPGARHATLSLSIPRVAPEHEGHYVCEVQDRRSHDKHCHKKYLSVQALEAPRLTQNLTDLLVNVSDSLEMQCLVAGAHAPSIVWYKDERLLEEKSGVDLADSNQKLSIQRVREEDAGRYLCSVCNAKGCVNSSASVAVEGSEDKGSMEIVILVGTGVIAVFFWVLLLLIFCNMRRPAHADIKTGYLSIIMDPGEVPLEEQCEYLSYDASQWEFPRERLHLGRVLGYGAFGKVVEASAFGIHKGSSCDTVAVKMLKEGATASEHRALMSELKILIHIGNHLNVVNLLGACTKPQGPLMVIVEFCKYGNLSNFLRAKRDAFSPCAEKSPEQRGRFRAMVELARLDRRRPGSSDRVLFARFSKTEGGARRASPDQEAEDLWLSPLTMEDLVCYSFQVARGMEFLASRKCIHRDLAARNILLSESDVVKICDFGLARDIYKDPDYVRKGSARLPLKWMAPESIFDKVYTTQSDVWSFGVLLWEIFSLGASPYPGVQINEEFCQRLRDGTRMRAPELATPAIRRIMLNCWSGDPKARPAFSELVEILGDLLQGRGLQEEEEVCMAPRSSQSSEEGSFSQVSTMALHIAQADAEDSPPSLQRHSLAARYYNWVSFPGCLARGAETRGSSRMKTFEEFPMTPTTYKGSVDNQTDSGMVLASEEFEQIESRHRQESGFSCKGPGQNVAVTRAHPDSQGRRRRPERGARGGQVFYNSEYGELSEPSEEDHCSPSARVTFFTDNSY
PKCmu, sequence (Q15139 whole entry): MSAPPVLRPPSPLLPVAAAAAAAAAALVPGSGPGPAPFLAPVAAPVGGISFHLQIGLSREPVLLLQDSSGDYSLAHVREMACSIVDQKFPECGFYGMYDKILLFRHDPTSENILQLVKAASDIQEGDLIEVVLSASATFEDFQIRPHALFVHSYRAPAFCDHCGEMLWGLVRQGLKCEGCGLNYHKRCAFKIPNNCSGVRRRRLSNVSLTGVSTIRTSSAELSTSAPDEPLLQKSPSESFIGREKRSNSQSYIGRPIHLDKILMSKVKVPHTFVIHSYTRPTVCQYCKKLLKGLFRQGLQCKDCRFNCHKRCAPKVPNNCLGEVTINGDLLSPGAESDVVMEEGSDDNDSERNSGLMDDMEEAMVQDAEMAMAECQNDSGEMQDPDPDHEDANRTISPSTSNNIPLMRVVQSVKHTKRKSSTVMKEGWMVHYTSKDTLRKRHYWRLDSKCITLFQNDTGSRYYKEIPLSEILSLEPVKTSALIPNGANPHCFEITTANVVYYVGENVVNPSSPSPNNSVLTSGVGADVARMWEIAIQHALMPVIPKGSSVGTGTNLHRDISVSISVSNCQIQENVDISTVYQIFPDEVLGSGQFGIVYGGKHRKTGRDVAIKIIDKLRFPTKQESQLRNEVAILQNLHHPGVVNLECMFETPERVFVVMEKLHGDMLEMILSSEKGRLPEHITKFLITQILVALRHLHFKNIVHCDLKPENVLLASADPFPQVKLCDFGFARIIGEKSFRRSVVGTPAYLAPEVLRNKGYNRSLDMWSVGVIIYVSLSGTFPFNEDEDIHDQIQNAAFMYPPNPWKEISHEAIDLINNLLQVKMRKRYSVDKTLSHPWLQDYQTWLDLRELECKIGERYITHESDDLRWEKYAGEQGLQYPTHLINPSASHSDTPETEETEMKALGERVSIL
c-Kit, sequence (P10721 26-976): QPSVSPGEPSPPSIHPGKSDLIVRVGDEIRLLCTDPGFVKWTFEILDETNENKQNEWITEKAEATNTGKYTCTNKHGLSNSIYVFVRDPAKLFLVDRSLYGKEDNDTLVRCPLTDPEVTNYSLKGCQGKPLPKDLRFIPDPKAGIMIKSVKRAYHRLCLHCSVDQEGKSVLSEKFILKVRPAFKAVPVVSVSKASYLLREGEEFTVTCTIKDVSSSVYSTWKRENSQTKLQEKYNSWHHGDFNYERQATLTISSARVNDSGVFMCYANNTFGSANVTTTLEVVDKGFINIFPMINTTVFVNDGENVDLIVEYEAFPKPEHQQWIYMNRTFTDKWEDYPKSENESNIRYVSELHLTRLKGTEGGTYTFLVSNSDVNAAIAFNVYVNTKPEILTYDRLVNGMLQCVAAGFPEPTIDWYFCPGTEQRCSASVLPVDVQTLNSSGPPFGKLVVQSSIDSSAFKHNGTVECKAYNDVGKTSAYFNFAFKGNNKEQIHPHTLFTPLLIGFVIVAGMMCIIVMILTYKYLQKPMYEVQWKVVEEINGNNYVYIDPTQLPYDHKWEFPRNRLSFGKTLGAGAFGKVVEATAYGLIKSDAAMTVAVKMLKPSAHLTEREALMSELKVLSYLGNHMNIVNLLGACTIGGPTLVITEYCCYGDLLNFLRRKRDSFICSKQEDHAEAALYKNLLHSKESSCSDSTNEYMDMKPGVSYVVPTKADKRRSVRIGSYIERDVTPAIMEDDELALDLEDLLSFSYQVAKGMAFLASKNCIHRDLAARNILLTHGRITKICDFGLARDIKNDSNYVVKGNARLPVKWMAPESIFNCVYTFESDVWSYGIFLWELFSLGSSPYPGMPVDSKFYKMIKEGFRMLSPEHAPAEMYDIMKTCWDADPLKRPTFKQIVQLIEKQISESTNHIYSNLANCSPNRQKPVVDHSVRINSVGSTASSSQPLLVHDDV
TTK, sequence (P33981 whole entry, species assumed): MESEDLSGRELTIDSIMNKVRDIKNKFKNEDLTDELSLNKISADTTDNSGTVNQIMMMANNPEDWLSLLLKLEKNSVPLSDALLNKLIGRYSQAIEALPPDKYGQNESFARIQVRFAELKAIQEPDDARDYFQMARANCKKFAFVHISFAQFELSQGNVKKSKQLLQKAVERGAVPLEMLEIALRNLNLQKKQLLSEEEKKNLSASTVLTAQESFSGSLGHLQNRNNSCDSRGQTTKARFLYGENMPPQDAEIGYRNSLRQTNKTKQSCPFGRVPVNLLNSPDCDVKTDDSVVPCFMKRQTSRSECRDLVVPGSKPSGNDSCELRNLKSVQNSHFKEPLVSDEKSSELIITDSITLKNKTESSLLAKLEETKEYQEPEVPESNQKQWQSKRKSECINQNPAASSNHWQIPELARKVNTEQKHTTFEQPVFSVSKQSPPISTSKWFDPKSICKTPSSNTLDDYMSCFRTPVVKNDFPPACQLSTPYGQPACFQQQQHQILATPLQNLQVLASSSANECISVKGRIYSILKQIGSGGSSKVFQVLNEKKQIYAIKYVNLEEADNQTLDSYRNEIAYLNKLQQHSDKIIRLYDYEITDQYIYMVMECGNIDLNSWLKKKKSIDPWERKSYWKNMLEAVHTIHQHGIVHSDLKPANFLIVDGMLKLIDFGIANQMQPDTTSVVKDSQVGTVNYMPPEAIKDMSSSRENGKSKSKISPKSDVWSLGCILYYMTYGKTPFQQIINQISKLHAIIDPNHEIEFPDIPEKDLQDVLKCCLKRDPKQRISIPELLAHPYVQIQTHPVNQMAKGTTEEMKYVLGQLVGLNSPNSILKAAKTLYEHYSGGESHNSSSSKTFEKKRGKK
FGR, sequence (P09769 whole entry, species assumed): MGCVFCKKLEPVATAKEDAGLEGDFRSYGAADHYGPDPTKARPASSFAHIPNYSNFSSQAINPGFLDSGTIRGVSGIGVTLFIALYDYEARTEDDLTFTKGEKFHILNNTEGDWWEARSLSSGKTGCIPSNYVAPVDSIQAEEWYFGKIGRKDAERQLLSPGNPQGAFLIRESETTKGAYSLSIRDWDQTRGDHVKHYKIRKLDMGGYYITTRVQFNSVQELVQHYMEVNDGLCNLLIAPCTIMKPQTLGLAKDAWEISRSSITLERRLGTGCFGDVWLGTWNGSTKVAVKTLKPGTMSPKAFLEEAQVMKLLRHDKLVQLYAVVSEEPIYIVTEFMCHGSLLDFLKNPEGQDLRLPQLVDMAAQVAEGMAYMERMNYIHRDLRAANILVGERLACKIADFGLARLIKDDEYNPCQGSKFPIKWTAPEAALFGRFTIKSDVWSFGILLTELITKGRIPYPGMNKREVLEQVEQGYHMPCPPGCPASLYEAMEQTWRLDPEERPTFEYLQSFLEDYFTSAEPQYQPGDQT

| IC50 [1] [nM] | SMILES | other results |
| --- | --- | --- |
| > 10000 | CN1CCN(c2ccc(Nc3ncc4cc(S(C)(=O)=O)c(=O)n(C5CCCC5)c4n3)cc2)CC1 [Comp. Ex. 1, 8-cyclopentyl-2-((4-(4-methylpiperazin-1-yl)phenyl)amino)-6-(methylsulfonyl)pyrido[2,3-d]pyrimidin-7(8H)-one, reference compound] |  |
| > 5000 | COc1ccc(Nc2ncc3ccc(=O)n(C4CCCC4)c3n2)c(OC)c1 [Comp. Ex. 5, 8-cyclopentyl-2-((2,4-dimethoxyphenyl)amino)pyrido[2,3-d]pyrimidin-7(8H)-one, reference compound] |  |

More lines, now with the values behind:

| SMILES | IC50 [1] [nM] | other results |
| --- | --- | --- |
| CN1CCN(c2ccc(Nc3ncc4cc(S(=O)(=O)c5ccc(Cl)cc5)c(=O)n(C5CCCC5)c4n3)cc2)CC1 [Comp. Ex. 2, 6-((4-chlorophenyl)sulfonyl)-8-cyclopentyl-2-((4-(4-methylpiperazin-1-yl)phenyl)amino)pyrido[2,3-d]pyrimidin-7(8H)-one, reference compound] | > 10000 |  |
| COc1ccc(Nc2ncc3ccc(=O)n(C4CCCC4)c3n2)cc1OC [Comp. Ex. 4, 8-cyclopentyl-2-((3,4-dimethoxyphenyl)amino)pyrido[2,3-d]pyrimidin-7(8H)-one, reference compound] | > 1000 |  |
| N#Cc1cc2cnc(Nc3ccc(N4CCOCC4)cc3)nc2n(C2CCCC2)c1=O [Compound 13, 8-cyclopentyl-2-((4-morpholinophenyl)amino)-7-oxo-7,8-dihydropyrido[2,3-d]pyrimidine-6-carbonitrile] | 75 |  |
| COc1cc(Nc2ncc3cc(C#N)c(=O)n(C4CCCC4)c3n2)cc(OC)c1 [Compound 14, 8-cyclopentyl-2-((3,5-dimethoxyphenyl)amino)-7-oxo-7,8-dihydropyrido[2,3-d]pyrimidine-6-carbonitrile] | 75 |  |
| COc1cc(Nc2ncc3cc(C#N)c(=O)n(C4CCCC4)c3n2)cc(OC)c1OC [Compound 15, 8-cyclopentyl-7-oxo-2-((3,4,5-trimethoxyphenyl)amino)-7,8-dihydropyrido[2,3-d]pyrimidine-6-carbonitrile] | 49.8 |  |
| CN1CCN(c2ccc(Nc3ncc4cc(C#N)c(=O)n(C5CCCCC5)c4n3)cc2)CC1 [Compound 16, 8-cyclohexyl-2-((4-(4-methylpiperazin-1-yl)phenyl)amino)-7-oxo-7,8-dihydropyrido[2,3-d]pyrimidine-6-carbonitrile] | 43.4 |  |
| CC(=O)c1c(C)c2cnc(Nc3ccc(N4CCNCC4)cn3)nc2n(C2CCCC2)c1=O [PD0332991, reference compound] |  | IC50 (c-Kit): > 10000 nM; IC50 (FGR): > 10000 nM; IC50 (PKCmu): 126 nM; IC50 (TTK): 697 nM; IC50 (FLT4NEGFR3): > 10000 nM; IC50 (ARK5): 3390 nM |
